The results in this text go back to patent US20120115845A1, “THERAPEUTIC AGENTS” (priority 2007, published 2012).

Assay [1] has as its target T1, human GHS receptor (Homo sapiens, UniProt Q92847). Nature of the assay: h bind IC50 (binding assay, Table 1). The following applies: human receptor; Table 1.
For assay [2], the target named is T1, human GHS receptor. Briefly: Ghrelin IP1 agonist assay (IP1 HTRF). It counts as cell-based. Further details: expressed in transfected cells; host or cells: HEK293s. Conditions: for Emax: 2 h, agonist effect as % maximal effect of GHRP-6 (5 μM), read-out: h IP1 ag %; for EC50: HEK293s cells stably expressing human GHS receptor, 2 hours at 37° C., read-out: h IP1 ag EC50. Summed up: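 Cells: HEK293s stably expressing human GHS receptor, in stimulation buffer containing 0.02% fatty acid free BSA.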

T1 sequence (Q92847 whole entry): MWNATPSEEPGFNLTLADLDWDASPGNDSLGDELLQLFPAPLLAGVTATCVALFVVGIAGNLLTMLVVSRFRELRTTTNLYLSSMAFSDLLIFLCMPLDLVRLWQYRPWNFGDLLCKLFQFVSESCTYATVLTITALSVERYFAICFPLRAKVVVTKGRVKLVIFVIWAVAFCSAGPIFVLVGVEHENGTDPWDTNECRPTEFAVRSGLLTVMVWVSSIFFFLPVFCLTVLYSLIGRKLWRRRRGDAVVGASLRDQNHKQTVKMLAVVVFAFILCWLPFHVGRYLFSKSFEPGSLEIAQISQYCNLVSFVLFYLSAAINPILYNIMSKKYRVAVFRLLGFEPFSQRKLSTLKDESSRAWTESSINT

With `O=C(NC(=O)c1ccccc1Cl)Nc1nc2ccc(S(=O)(=O)CCCn3ccnc3)cc2s1` [Example 193, 2-Chloro-N-[[6-(3-imidazol-1-ylpropylsulfonyl)benzothiazol-2-yl]carbamoyl]benzamide], on human GHS receptor [1], the half-maximal inhibitory concentration (IC50) was found to be 25.9 nM. Moreover, at human GHS receptor [2], the Emax was 30.6% and the concentration for a half-maximal effect (EC50) is 18.5 nM.

`Cc1ccc(F)c(C(=O)NC(=O)Nc2nc3ccc(S(C)(=O)=O)cc3s2)c1Cl` [Example 194, 2-Chloro-6-fluoro-3-methyl-N-[(6-methylsulfonylbenzothiazol-2-yl)carbamoyl]benzamide]: at human GHS receptor [1], the IC50 came out at 172 nM. On human GHS receptor [2], the Emax came out at 39.4% and the half-maximal effective concentration (EC50) was 9.52 nM.

On human GHS receptor [1], `Cc1ccc(Cl)c(C(=O)NC(=O)Nc2nc3ccc(S(C)(=O)=O)cc3s2)c1F` [Example 195, 6-Chloro-2-fluoro-3-methyl-N-[(6-methylsulfonylbenzothiazol-2-yl)carbamoyl]benzamide] showed an IC50 of 114 nM. Further, on human GHS receptor [2], the Emax was found to be 22.8% and the EC50 worked out at 32.9 nM.

In turn, `C[C@@H]1CN(CCCS(=O)(=O)c2ccc3nc(NC(=O)NC(=O)c4ccccc4Cl)sc3c2)C[C@H](C)N1` [Example 196, 2-Chloro-N-[[6-[3-[(3S,5R)-3,5-dimethylpiperazin-1-yl]propylsulfonyl]benzothiazol-2-yl]carbamoyl]benzamide] had a half-inhibitory concentration (IC50) on human GHS receptor [1] of 1.5 nM. For the same molecule, at human GHS receptor [2], the Emax amounted to 79.4% and the concentration for a half-maximal effect (EC50) worked out at 0.934 nM.

On human GHS receptor [1], `CCN1CCN(CCCS(=O)(=O)c2ccc3nc(NC(=O)NC(=O)c4ccccc4Cl)sc3c2)CC1` [Example 197, 2-Chloro-N-[[6-[3-(4-ethylpiperazin-1-yl)propylsulfonyl]benzothiazol-2-yl]carbamoyl]benzamide] gave a concentration for half-maximal inhibition (IC50) of 0.4 nM. Besides, at human GHS receptor [2], the Emax stood at 55.8% and the EC50 worked out at 2.02 nM.

On human GHS receptor [1], `CC(=O)N1CCN(CCCS(=O)(=O)c2ccc3nc(NC(=O)NC(=O)c4ccccc4Cl)sc3c2)CC1` [Example 198, N-[[6-[3-(4-Acetylpiperazin-1-yl)propylsulfonyl]benzothiazol-2-yl]carbamoyl]-2-chloro-benzamide] showed a concentration for half-maximal inhibition (IC50) of 10.8 nM. For the same molecule, at human GHS receptor [2], the Emax was determined as 32.1% and the concentration for a half-maximal effect (EC50) is 11 nM.

As for `CC(C)N1CCN(CCCS(=O)(=O)c2ccc3nc(NC(=O)NC(=O)c4ccccc4Cl)sc3c2)CC1` [Example 199, 2-Chloro-N-[[6-[3-(4-propan-2-ylpiperazin-1-yl)propylsulfonyl]benzothiazol-2-yl]carbamoyl]benzamide], the half-maximal inhibitory concentration (IC50) at human GHS receptor [1] was determined as 2.2 nM. For the same molecule, on human GHS receptor [2], the Emax was 42.2% and the EC50 is 1.82 nM.

The molecule `COCCN1CCN(CCCS(=O)(=O)c2ccc3nc(NC(=O)NC(=O)c4ccccc4Cl)sc3c2)CC1` [Example 200, 2-Chloro-N-[[6-[3-[4-(2-methoxyethyl)piperazin-1-yl]propylsulfonyl]benzothiazol-2-yl]carbamoyl]benzamide] had an IC50 on human GHS receptor [1] of 2.7 nM. Further, at human GHS receptor [2], the Emax worked out at 41.4% and the EC50 stood at 4.53 nM.

On to `CN(C)C1CCN(CCCS(=O)(=O)c2ccc3nc(NC(=O)NC(=O)c4ccccc4Cl)sc3c2)CC1` [Example 201, 2-Chloro-N-[[6-[3-(4-dimethylamino-1-piperidyl)propylsulfonyl]benzothiazol-2-yl]carbamoyl]benzamide], for which the IC50 on human GHS receptor [1] worked out at 0.9 nM. On human GHS receptor [2], the Emax is 29.7% and the concentration for a half-maximal effect (EC50) was 4.54 nM.

At human GHS receptor [1], `CN(C)CCCS(=O)(=O)c1ccc2nc(NC(=O)NC(=O)c3ccccc3Cl)sc2c1` [Example 202, 2-Chloro-N-[[6-(3-dimethylaminopropylsulfonyl)benzothiazol-2-yl]carbamoyl]benzamide] yielded an IC50 of 8.7 nM. Moreover, at human GHS receptor [2], the Emax was 51.3% and the EC50 came out at 13.4 nM.

Take `COCCNCCCS(=O)(=O)c1ccc2nc(NC(=O)NC(=O)c3ccccc3Cl)sc2c1` [Example 203, 2-Chloro-N-[[6-[3-(2-methoxyethylamino)propylsulfonyl]benzothiazol-2-yl]carbamoyl]benzamide]: the concentration for half-maximal inhibition (IC50) on human GHS receptor [1] is 14.9 nM. Besides, at human GHS receptor [2], the Emax worked out at 29.4% and the EC50 was 6.22 nM.

In turn, `CN1CCCN(CCCS(=O)(=O)c2ccc3nc(NC(=O)NC(=O)c4ccccc4Cl)sc3c2)CC1` [Example 204, 2-Chloro-N-[[6-[3-(4-methyl-1,4-diazepan-1-yl)propylsulfonyl]benzothiazol-2-yl]carbamoyl]benzamide] showed an IC50 on human GHS receptor [1] of 1.2 nM. Also, on human GHS receptor [2], the Emax came to 36.2% and the EC50 was found to be 6.92 nM.

At human GHS receptor [1], `CC(C)(C)OC(=O)N1CCN(CCCS(=O)(=O)c2ccc3nc(NC(=O)NC(=O)c4ccccc4Cl)sc3c2)CC1` [Example 205, tert-Butyl 4-[3-[2-[(2-chlorobenzoyl)carbamoylamino]benzothiazol-6-yl]sulfonylpropyl]piperazine-1-carboxylate] registered an IC50 of 5.3 nM. In addition, at human GHS receptor [2], the Emax worked out at 39.5% and the EC50 was 2 nM.

`O=C(NC(=O)c1ccccc1Cl)Nc1nc2ccc(S(=O)(=O)CCCN3CCNCC3)cc2s1` [Example 206, 2-Chloro-N-[[6-(3-piperazin-1-ylpropylsulfonyl)benzothiazol-2-yl]carbamoyl]benzamide] yielded an IC50 on human GHS receptor [1] of 14.4 nM. Moreover, at human GHS receptor [2], the Emax came to 69% and the 50% effective concentration (EC50) stood at 9.58 nM.

At human GHS receptor [1], `CS(=O)(=O)N1CCN(CCCS(=O)(=O)c2ccc3nc(NC(=O)NC(=O)c4ccccc4Cl)sc3c2)CC1` [Example 208, 2-Chloro-N-[[6-[3-(4-methylsulfonylpiperazin-1-yl)propylsulfonyl]benzothiazol-2-yl]carbamoyl]benzamide] showed a 50% inhibitory concentration (IC50) of 18.1 nM. On human GHS receptor [2], the Emax is 30.7% and the EC50 came out at 13.5 nM.

`CC1CN(CCCS(=O)(=O)c2ccc3nc(NC(=O)NC(=O)c4ccccc4Cl)sc3c2)CCN1` (stereo not drawn) [Example 209, 2-Chloro-N-[[6-[3-(3-methylpiperazin-1-yl)propylsulfonyl]benzothiazol-2-yl]carbamoyl]benzamide]: at human GHS receptor [1], the concentration for half-maximal inhibition (IC50) was 12.4 nM. On human GHS receptor [2], the Emax turned out to be 42.2% and the EC50 turned out to be 15.4 nM.

In turn, `CN1CCN(CCCCS(=O)(=O)c2ccc3nc(NC(=O)NC(=O)c4ccccc4Cl)sc3c2)CC1` [Example 210, 2-Chloro-N-[[6-[4-(4-methylpiperazin-1-yl)butylsulfonyl]benzothiazol-2-yl]carbamoyl]benzamide] yielded a 50% inhibitory concentration (IC50) on human GHS receptor [1] of 2.2 nM. At human GHS receptor [2], the Emax was determined as 51.5% and the EC50 turned out to be 2.26 nM.

As for `CCN(CC)CCCCS(=O)(=O)c1ccc2nc(NC(=O)NC(=O)c3ccccc3Cl)sc2c1` [Example 211, 2-Chloro-N-[[6-(4-diethylaminobutylsulfonyl)benzothiazol-2-yl]carbamoyl]benzamide], the 50% inhibitory concentration (IC50) at human GHS receptor [1] was 53.6 nM. Moreover, at human GHS receptor [2], the Emax was found to be 27.7% and the concentration giving a half-maximal response (EC50) was determined as 9.58 nM.

For `Cc1ccn(-c2ccc(C(=O)NC(=O)Nc3nc4ccc(S(=O)(=O)CCCN5CCN(C)CC5)cc4s3)c(Cl)c2)n1` [Example 212, 2-Chloro-N-[[6-[3-(4-methylpiperazin-1-yl)propylsulfonyl]benzothiazol-2-yl]carbamoyl]-4-(3-methylpyrazol-1-yl)benzamide], the IC50 on human GHS receptor [1] is 0.5 nM. In addition, on human GHS receptor [2], the Emax stood at 27.6% and the EC50 came out at 2.03 nM.
